Results on six compounds are retold here after US4764464A, “Semisynthetic enzymes: apoproteins from heme proteins as hydrolases” (priority 1986, dated 1988).

One data set deals with T1, apomyoglobin (Physeter macrocephalus, UniProt P02185).
T1 construct: purchased
The data set can be described thus: Hydrolysis of p-nitrophenyl alkanoates catalysed by apomyoglobin (absorbance at 400 nm). Format: biochemical, sperm whale. To be noted: for k2 /KM (catalytic constant) / k2 /Kun (enhancement over rate in the absence of apomyoglobin) / K2 / kobs: 25° C.; for k2 /KM (catalytic constant) / k2 /Kun (enhancement over rate in the absence of apomyoglobin) / K2: pH 8; for K2: Lineweaver Burk; for kobs: pH 8, 0.05 M TRIS. As to the method:
Preparation of Apomylglobin. The heme group was removed from sperm whale metmyoglobin by the acid acetone method of Rossi-Fanelli and coworkers, op. cit., from a commercially available sample which was not purified prior to use.
(§1) Hydrolysis of p-Nitrophenyl Alkanoates. The experimental methods used in the hydrolysis of these esters is exemplified by the hydrolysis of p-nitrophenyl caproate. Kinetic runs were performed with the semisynthetic enzyme, apomyoglobin, in excess of the substrate. All hydrolyses were done in 99.9% aqueous media at 25° C. at pH 8 using 0.05 molar tris(hydroxymethyl)aminomethane(TRIS) as a buffer. Each sample cuvette containing varying concentrations of apomyoglobin (Eo) in 1 ml of 0.05M buffer was allowed to equilibrate at 25° C. in a thermostated cell holder of a spectrophotometer. To this was added 1 microliter of 1.13×10^-2 M p-nitrophenyl caproate in ethanol and the contents thereafter were mixed well. The increase in absorbance at 400 nm arising from the p-nitrophenolate ion was monitored as a function of time until hydrolysis was complete.
(§2) In the absence of apomyoglobin the hydrolysis of a solution of 1.13×10^-5 M of the same ester under the same conditions proceeded with the rate constant of 2.7×10^-5 sec^-1. The enhancement achieved with the semisynthetic enzyme is therefore 1800.
Where the same type of experiment yielded a decrease in catalysis rate in those instances the deacylation may become rate limiting. Some results of ester hydrolysis catalyzed by apomyoglobin are summarized in Table 2, where k2 /kM is often referred to as the "catalytic constant," and kun is the hydrolytic rate constant in the absence of apomyoglobin.

A short description of data set [1]: Denaturation (stability) of the apoprotein under reaction conditions. Format: physicochemical, sperm whale. Here is the method:
The reaction temperature also is dictated by stability of the semisynthetic enzyme. When apoprotein derived from, e.g., sperm whale myoglobin is used, it often is denatured substantially at a temperature in excess of about 40° C., and consequently its use is recommended at a temperature under about 40° C. However, it needs to be emphasized that even where the semisynthetic enzyme is denatured at a higher temperature it can be used so long as its denaturation is slower than hydrolysis, although no reuse may be possible.
Finally, the pH at which the hydrolysis is performed also is dictated by the denaturation properties of the semisynthetic enzyme. For example, where the apoprotein is derived from sperm whale myoglobin a pH range between about 6.5 and about 9 is found to cause little if any denaturation.

Data set [2] has as its system apomyoglobin (denatured, 8 molar urea). The data set can be described thus: Hydrolysis of p-nitrophenyl acetate with apomyoglobin denatured in 8 molar urea. Type of data set: biochemical, sperm whale. To be noted: after 150 seconds, apomyoglobin solution also 8 molar in urea. Here is the method:
To ascertain that our remarkable catalytic rates result from the active site only of the empty heme pocket or cavity the following experiments were performed. In the first experiment reconstituted myoglobin was prepared from apomyoglobin and hemin, and the hydrolysis of p-nitrophenyl caproate was determined as previously described. […] This eliminates the possibility that periperal lysine and histidine residues catalyze hydrolysis. In the second experiment the rate of hydrolysis of a solution of p-nitrophenyl acetate in buffer containing apomyoglobin, prepared as described above, was compared with the rate of hydrolysis in a similar solution which was also 8 molar in urea to ensure denaturation of apomyoglobin. After 150 seconds the reaction was 98% complete in the first solution, but only 2% complete in the urea-containing solution.

Data set [3] can be described thus: Hydrolysis of the ester in the absence of apomyoglobin (spontaneous rate). Type of data set: physicochemical. To be noted: 1.13×10^-5 M ester, 25° C., pH 8, 0.05 M TRIS. As to the method:
as §1, §2

A further data set deals with reconstituted myoglobin. The data set can be described thus: Hydrolysis of p-nitrophenyl caproate with reconstituted myoglobin (apomyoglobin and hemin). To be noted: reconstituted myoglobin from apomyoglobin and hemin. Format: biochemical, sperm whale. As to the method:
as §1
To ascertain that our remarkable catalytic rates result from the active site only of the empty heme pocket or cavity the following experiments were performed. In the first experiment reconstituted myoglobin was prepared from apomyoglobin and hemin, and the hydrolysis of p-nitrophenyl caproate was determined as previously described. […] This eliminates the possibility that periperal lysine and histidine residues catalyze hydrolysis. […]

T1 sequence (P02185 whole entry): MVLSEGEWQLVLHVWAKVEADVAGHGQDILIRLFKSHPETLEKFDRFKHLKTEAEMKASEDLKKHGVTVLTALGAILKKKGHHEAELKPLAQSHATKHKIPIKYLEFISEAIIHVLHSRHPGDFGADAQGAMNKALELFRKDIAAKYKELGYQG

On to `CCC(=O)Oc1ccc([N+](=O)[O-])cc1`, for which, at apomyoglobin, the “k2 /KM (catalytic constant)” value came out at 6.4 M⁻¹ s⁻¹ and the “k2 /Kun (enhancement over rate in the absence of apomyoglobin)” value was found to be 42.

For `CCCCCCCCCC(=O)Oc1ccc([N+](=O)[O-])cc1` [Caprate], on apomyoglobin, the “k2 /KM (catalytic constant)” value was 49 M⁻¹ s⁻¹, the “k2 /Kun (enhancement over rate in the absence of apomyoglobin)” value stood at 4600 and the K2 is 0.03 s⁻¹.

Take “apoprotein derived from, e.g., sperm whale myoglobin: sperm whale metmyoglobin from which the heme group was removed by the acid acetone method; semisynthetic esterase”: the “temperature above which substantially denatured” value in data set [1] was > 40 °C.

In the case of `CC(=O)Oc1ccc([N+](=O)[O-])cc1` [Acetate, p-nitrophenyl acetate], the “rate of hydrolysis by 5×10^-5 M apomyoglobin versus apomyoglobin first reacted with 5×10^-5 M ester to 95% completion” value on apomyoglobin (1×10^-5 M ester) was “identical”. Besides, at apomyoglobin, the “k2 /KM (catalytic constant)” value was found to be 13.5 M⁻¹ s⁻¹, the “k2 /Kun (enhancement over rate in the absence of apomyoglobin)” value came out at 134 and the K2 was 0.0058 s⁻¹. Also, on apomyoglobin (after 150 seconds, buffer containing apomyoglobin), the reaction completion was 98%. For the same compound, at apomyoglobin (rate with fresh apomyoglobin compared with pre-reacted apomyoglobin), the “Turnover (k3 versus k2)” value is listed as “k3 is much greater than k2”. This compound gave a reaction completion in data set [2] of 2%.

`CCCC(=O)Oc1ccc([N+](=O)[O-])cc1` [Butyrate]: at apomyoglobin, the “k2 /KM (catalytic constant)” value turned out to be 26.4 M⁻¹ s⁻¹, the “k2 /Kun (enhancement over rate in the absence of apomyoglobin)” value was 127 and the K2 amounted to 0.0038 s⁻¹.

Regarding `CCCCCC(=O)Oc1ccc([N+](=O)[O-])cc1` [Caproate, p-nitrophenyl caproate], the “rate constant of hydrolysis in the absence of apomyoglobin” value in data set [3] amounted to 2.7e-05 s⁻¹. In addition, the “k2 /KM (catalytic constant)” value at apomyoglobin is 67 M⁻¹ s⁻¹. Besides, the “k2 /Kun (enhancement over rate in the absence of apomyoglobin)” value at apomyoglobin is reported as 1800. Also, the kobs at apomyoglobin (Eo 2.11 (10^-5 M) apomyoglobin) was 1.08 10^-2 sec^-1; at apomyoglobin (Eo 4.23 (10^-5 M) apomyoglobin) it was 1.84 10^-2 sec^-1; on apomyoglobin (Eo 6.35 (10^-5 M) apomyoglobin), 2.21 10^-2 sec^-1; on apomyoglobin (Eo 8.46 (10^-5 M) apomyoglobin), 2.63 10^-2 sec^-1; at apomyoglobin (Eo 10.6 (10^-5 M) apomyoglobin) it was 2.83 10^-2 sec^-1. For the same compound, the K2 at apomyoglobin and on apomyoglobin (listed as p-nitrophenyl caproate) was 0.0493 s⁻¹ each time. In addition, in the data set with reconstituted myoglobin, the “hydrolysis rate relative to the spontaneous (uncatalyzed) rate” value is on record as “not more than twice that of the spontaneous (uncatalyzed) rate”.
